According to patent publication US20090252673A1, “Methods of Making and Using Rubidium-81-Containing Compositions” (priority 2006, published 2009):

Legend:
[1] = Biodistribution of Rb-81 in rats; type: in vivo, female Wistar rats; conditions: mean±SD, n=3
Experimental: 1.85-5.33 MBq (50-144 μCi) Rb-81 in 250 μl isotonic saline was injected into the lateral tail vein of 24 non-fasted female Wistar rats weighing 180-220 g (12 animals at each day).
All the animals were anesthesized with Isofluran (1.5 vol. % and 2.01/min 02) during the injection of the Rb-81 solution. 5 min, 10 min, 20 min, 30 min, 45 min, 1 h, 2 h and 4 h post injection of the Rb-81 solution, the animals were sacrificed by carbon dioxide inhalation (n=3 animals for all time points).
The organs of interest (heart, blood, lungs, liver, stomach, spleen, pancreas, small intestine, colon, kidney, adrenal gland, muscle, bone, brain and tail) were dissected, weighed and measured for activity using a well-type g-counter. Tracer accumulation was normalized to the organ weights. All data are expressed as percent of the injected dose per gram tissue (% ID/g, mean±SD).

[2] = system: rat heart (myocardium), normal and occlusion/reperfusion; assay: Imaging of rat hearts using a small animal PET scanner; type: in vivo, female Wistar rats
Experimental: For the PET measurements, a microPET FOCUS 120 small animal scanner (Siemens Medical Solutions USA, Inc.) was used. Imaging was done on 4 female Wistar rats (200-250 g) (see Tab. 1). […] After 5 min, the occlusion was removed and dynamic PET images of the animals were taken for 4 h and 2 h. Two rats were used as controls without occlusion (rest). The first rat was injected with 20.2 MBq Rb-81 and the second rat with 69.3 MBq Rb-81, in 500 μl isotonic saline. Following injection, dynamic PET images of the animals were taken for 4 h (S1#1 und S1#2) and 2 h (S2#3 and S2#4). The Rb-81 solution was injected intravenously in the lateral tail vein of all animals. For occlusion, a 7-0 polypropylene suture on a small curved needle was passed through the left coronary artery (LCA), and ligated to occlude the LCA. After tracer injection, reperfusion was obtained by cutting the suture. LCA occlusion and reperfusion were confirmed by the color change of myocardial surface. […]
After PET imaging, all animals were sacrificed by carbon dioxide inhalation and the organs of interest (see above) were dissected, weighed and measured for activity using a well-type g-counter. […] All data are expressed as percent of the injected dose per gram tissue (% ID/g, mean±SD). […]

[3] = system: occlusion/reperfusion rat heart model; assay: Ex vivo dual tracer autoradiography, Tl-201 and Rb-81 redistribution kinetics; type: in vivo, rats; conditions: for activity in occluded areas, percent of the uptake in normal tissues: 20 μm heart slices, phosphor-imager ROIs
Experimental: Three additional rats were simultaneously injected with 20 MBq Rb-81 and 2.7 MBq Tl-201. After the occlusion/injection/reperfusion procedure was completed (see FIG. 8), the animals were sacrificed at 0, 15 and 45 min after initiating the reperfusion.
After the hearts of the animals were removed and freshly frozen in liquid nitrogen, they were sliced into short axis 20 μm slices. Radioactivity in the tissues sections was determined by using a phosphor-imager. Rb-81 was measured over a period of 3 h directly after preparation of the slices, whereas the Tl-201 activity was determined after the Rb-81 activity was almost completed (Rb-81: t1/2=4.58 h versus a 4 day decay period).
Quantitative evaluations were carried out by comparison of the detected counts within regions-of-interest in both, normal tissue areas and occluded tissues areas. Comparisons are given in percent of normal heart tissue.

[4] = 5 min after application into the tail vein
[5] = 10 min after application into the tail vein
[6] = 20 min after application into the tail vein
[7] = 30 min after application into the tail vein
[8] = 45 min after application into the tail vein
[9] = 60 min after application into the tail vein
[10] = 120 min after application into the tail vein
[11] = 240 min after application into the tail vein

With `[81Rb]` [Rb-81, Rubidium-81] the “biodistribution, Adrenals” value [1, 4] was 3.68 ± 0.89 % ID/g, the “biodistribution, Blood” value [1, 4] was 0.25 ± 0.07 % ID/g and the “biodistribution, Bone” value [1, 4] was 0.48 ± 0.10 % ID/g. For the same compound, the “biodistribution, Brain” value [1, 4] was 0.10 ± 0.02 % ID/g, the “biodistribution, Heart” value [1, 4] was 4.18 ± 0.18 % ID/g and the “biodistribution, Kidney” value [1, 4] was 9.21 ± 0.98 % ID/g. The “biodistribution, Large Intestine” value [1, 4] was 1.03 ± 0.82 % ID/g, the “biodistribution, Liver” value [1, 4] was 1.25 ± 0.05 % ID/g and the “biodistribution, Lung” value [1, 4] was 2.09 ± 0.43 % ID/g. For the same compound, the “biodistribution, Muscle” value [1, 4] was 0.18 ± 0.02 % ID/g, the “biodistribution, Pancreas” value [1, 4] was 1.81 ± 0.20 % ID/g and the “biodistribution, Small Intestine” value [1, 4] was 4.06 ± 0.91 % ID/g. For the same compound, the “biodistribution, Spleen” value [1, 4] was 1.45 ± 0.30 % ID/g, the “biodistribution, Stomach” value [1, 4] was 0.80 ± 0.41 % ID/g and the “biodistribution, Adrenals” value [1, 5] was 3.44 ± 1.07 % ID/g. The “biodistribution, Blood” value [1, 5] was 0.22 ± 0.04 % ID/g, the “biodistribution, Bone” value [1, 5] was 0.66 ± 0.09 % ID/g and the “biodistribution, Brain” value [1, 5] was 0.09 ± 0.03 % ID/g. The “biodistribution, Heart” value [1, 5] was 4.30 ± 0.68 % ID/g, the “biodistribution, Kidney” value [1, 5] was 6.96 ± 1.39 % ID/g and the “biodistribution, Large Intestine” value [1, 5] was 1.22 ± 0.05 % ID/g. The “biodistribution, Liver” value [1, 5] was 2.37 ± 0.20 % ID/g, the “biodistribution, Lung” value [1, 5] was 1.74 ± 0.18 % ID/g and the “biodistribution, Muscle” value [1, 5] was 0.31 ± 0.12 % ID/g. The “biodistribution, Pancreas” value [1, 5] was 2.70 ± 0.02 % ID/g, the “biodistribution, Small Intestine” value [1, 5] was 3.47 ± 0.33 % ID/g and the “biodistribution, Spleen” value [1, 5] was 1.88 ± 0.21 % ID/g. For the same compound, the “biodistribution, Stomach” value [1, 5] was 0.63 ± 0.26 % ID/g, the “biodistribution, Adrenals” value [1, 6] was 2.92 ± 0.45 % ID/g and the “biodistribution, Blood” value [1, 6] was 0.21 ± 0.04 % ID/g. The “biodistribution, Bone” value [1, 6] was 0.65 ± 0.15 % ID/g, the “biodistribution, Brain” value [1, 6] was 0.11 ± 0.02 % ID/g and the “biodistribution, Heart” value [1, 6] was 2.55 ± 0.47 % ID/g. The “biodistribution, Kidney” value [1, 6] was 2.90 ± 0.51 % ID/g, the “biodistribution, Large Intestine” value [1, 6] was 0.70 ± 0.07 % ID/g and the “biodistribution, Liver” value [1, 6] was 2.47 ± 0.64 % ID/g. For the same compound, the “biodistribution, Lung” value [1, 6] was 1.62 ± 0.46 % ID/g, the “biodistribution, Muscle” value [1, 6] was 0.31 ± 0.02 % ID/g and the “biodistribution, Pancreas” value [1, 6] was 2.29 ± 0.73 % ID/g. For the same compound, the “biodistribution, Small Intestine” value [1, 6] was 2.73 ± 0.64 % ID/g, the “biodistribution, Spleen” value [1, 6] was 1.97 ± 0.47 % ID/g and the “biodistribution, Stomach” value [1, 6] was 1.20 ± 0.46 % ID/g. The “biodistribution, Adrenals” value [1, 7] was 2.08 ± 0.60 % ID/g, the “biodistribution, Blood” value [1, 7] was 0.19 ± 0.03 % ID/g and the “biodistribution, Bone” value [1, 7] was 0.63 ± 0.03 % ID/g. The “biodistribution, Brain” value [1, 7] was 0.09 ± 0.01 % ID/g, the “biodistribution, Heart” value [1, 7] was 2.69 ± 0.32 % ID/g and the “biodistribution, Kidney” value [1, 7] was 2.91 ± 0.37 % ID/g. For the same compound, the “biodistribution, Large Intestine” value [1, 7] was 0.53 ± 0.14 % ID/g, the “biodistribution, Liver” value [1, 7] was 2.60 ± 0.43 % ID/g and the “biodistribution, Lung” value [1, 7] was 1.73 ± 0.31 % ID/g. The “biodistribution, Muscle” value [1, 7] was 0.36 ± 002 % ID/g, the “biodistribution, Pancreas” value [1, 7] was 2.12 ± 0.13 % ID/g and the “biodistribution, Small Intestine” value [1, 7] was 2.33 ± 0.72 % ID/g. For the same compound, the “biodistribution, Spleen” value [1, 7] was 1.26 ± 0.78 % ID/g, the “biodistribution, Stomach” value [1, 7] was 0.88 ± 0.24 % ID/g and the “biodistribution, Adrenals” value [1, 8] was 1.32 ± 0.88 % ID/g. For the same compound, the “biodistribution, Blood” value [1, 8] was 0.15 ± 0.08 % ID/g, the “biodistribution, Bone” value [1, 8] was 0.38 ± 0.18 % ID/g and the “biodistribution, Brain” value [1, 8] was 0.07 ± 0.03 % ID/g. For the same compound, the “biodistribution, Heart” value [1, 8] was 1.58 ± 0.79 % ID/g, the “biodistribution, Kidney” value [1, 8] was 1.56 ± 0.77 % ID/g and the “biodistribution, Large Intestine” value [1, 8] was 0.47 ± 0.22 % ID/g. For the same compound, the “biodistribution, Liver” value [1, 8] was 1.79 ± 1.07 % ID/g, the “biodistribution, Lung” value [1, 8] was 1.02 ± 0.45 % ID/g and the “biodistribution, Muscle” value [1, 8] was 0.21 ± 0.06 % ID/g. For the same compound, the “biodistribution, Pancreas” value [1, 8] was 1.76 ± 0.91 % ID/g, the “biodistribution, Small Intestine” value [1, 8] was 1.45 ± 0.82 % ID/g and the “biodistribution, Spleen” value [1, 8] was 1.27 ± 0.57 % ID/g. For the same compound, the “biodistribution, Stomach” value [1, 8] was 0.57 ± 0.24 % ID/g, the “biodistribution, Adrenals” value [1, 9] was 1.45 ± 0.43 % ID/g and the “biodistribution, Blood” value [1, 9] was 0.17 ± 0.01 % ID/g. For the same compound, the “biodistribution, Bone” value [1, 9] was 0.54 ± 0.16 % ID/g, the “biodistribution, Brain” value [1, 9] was 0.08 ± 0.02 % ID/g and the “biodistribution, Heart” value [1, 9] was 1.48 ± 0.41 % ID/g. For the same compound, the “biodistribution, Kidney” value [1, 9] was 1.45 ± 0.14 % ID/g, the “biodistribution, Large Intestine” value [1, 9] was 0.53 ± 0.20 % ID/g and the “biodistribution, Liver” value [1, 9] was 2.25 ± 0.77 % ID/g. For the same compound, the “biodistribution, Lung” value [1, 9] was 1.00 ± 0.44 % ID/g, the “biodistribution, Muscle” value [1, 9] was 0.35 ± 0.14 % ID/g and the “biodistribution, Pancreas” value [1, 9] was 1.99 ± 0.73 % ID/g. The “biodistribution, Small Intestine” value [1, 9] was 1.25 ± 0.34 % ID/g, the “biodistribution, Spleen” value [1, 9] was 1.43 ± 0.41 % ID/g and the “biodistribution, Stomach” value [1, 9] was 0.64 ± 0.31 % ID/g. For the same compound, the “biodistribution, Adrenals” value [1, 10] was 0.56 ± 0.22 % ID/g, the “biodistribution, Blood” value [1, 10] was 0.10 ± 0.05 % ID/g and the “biodistribution, Bone” value [1, 10] was 0.33 ± 0.12 % ID/g. The “biodistribution, Brain” value [1, 10] was 0.06 ± 0.03 % ID/g, the “biodistribution, Heart” value [1, 10] was 0.67 ± 0.21 % ID/g and the “biodistribution, Kidney” value [1, 10] was 0.76 ± 0.27 % ID/g. The “biodistribution, Large Intestine” value [1, 10] was 0.36 ± 0.24 % ID/g, the “biodistribution, Liver” value [1, 10] was 1.32 ± 0.73 % ID/g and the “biodistribution, Lung” value [1, 10] was 0.60 ± 0.23 % ID/g. The “biodistribution, Muscle” value [1, 10] was 0.24 ± 0.13 % ID/g, the “biodistribution, Pancreas” value [1, 10] was 1.31 ± 0.66 % ID/g and the “biodistribution, Small Intestine” value [1, 10] was 0.83 ± 0.37 % ID/g. The “biodistribution, Spleen” value [1, 10] was 0.88 ± 0.42 % ID/g, the “biodistribution, Stomach” value [1, 10] was 0.34 ± 0.15 % ID/g and the “biodistribution, Adrenals” value [1, 11] was 0.75 ± 0.07 % ID/g. The “biodistribution, Blood” value [1, 11] was 0.20 ± 0.01 % ID/g, the “biodistribution, Bone” value [1, 11] was 0.61 ± 0.04 % ID/g and the “biodistribution, Brain” value [1, 11] was 0.13 ± 0.01 % ID/g. For the same compound, the “biodistribution, Heart” value [1, 11] was 0.81 ± 0.02 % ID/g, the “biodistribution, Kidney” value [1, 11] was 0.90 ± 0.04 % ID/g and the “biodistribution, Large Intestine” value [1, 11] was 0.59 ± 0.05 % ID/g. For the same compound, the “biodistribution, Liver” value [1, 11] was 1.90 ± 0.03 % ID/g, the “biodistribution, Lung” value [1, 11] was 0.79 ± 0.05 % ID/g and the “biodistribution, Muscle” value [1, 11] was 0.61 ± 0.11 % ID/g. For the same compound, the “biodistribution, Pancreas” value [1, 11] was 1.65 ± 0.20 % ID/g, the “biodistribution, Small Intestine” value [1, 11] was 0.89 ± 0.02 % ID/g and the “biodistribution, Spleen” value [1, 11] was 1.34 ± 0.06 % ID/g. For the same compound, the “biodistribution, Stomach” value [1, 11] was 0.44 ± 0.15 % ID/g, the “uptake in the myocardium” value ([2]; PET summation images, rat) was “highest shortly after administration” and the “period after re-opening of the occlusion over which filling in of the defect takes place (redistribution)” value ([2]; PET, rat with temporary coronary artery occlusion) was 40 to 50 min. For the same compound, the “activity in occluded areas, percent of the uptake in normal tissues” value (“activity in occluded areas, percent” below) ([3]; 0 min p.i.) was 7%, the “activity in occluded areas, percent” value ([3]; 15 min p.i.) was 37% and the “activity in occluded areas, percent” value ([3]; 45 min p.i.) was 82%. For the same compound, the redistribution kinetics ([3]; compared with Tl-201, occluded heart areas after reperfusion) was “considerably faster”.
With `[201Tl]` [Tl-201, reference compound] the “activity in occluded areas, percent” value ([3]; 0 min p.i.) was 5%, the “activity in occluded areas, percent” value ([3]; 15 min p.i.) was 28% and the “activity in occluded areas, percent” value ([3]; 45 min p.i.) was 58%.
